Results: US10696707B2, “Polyene macrolide derivative” (Shionogi & Co., Ltd., priority 2014, dated 2020)
pIC50: −log10 of the molar value. Read-outs that look alike come from different tables or passages of the source.

Tested on: red blood cells (5% RBC suspension)
Test: Test Example 2-2: in vitro hemolytic activity test (upper limit 200 μmol/L)
Format: cell-based
Conditions: read-out: hemolysis IC50
Method: Nephrotoxic potentials of the compounds of the present invention whose X is —N(R^F)—CO—X^1 and X^1 is the group represented by formula (III) and T is —N(R^a5)— were investigated by in vitro hemolytic activity test under the condition that the upper limit was 200 μmol/L as the required concentration to 50% of hemolysis (IC50).
Defibrinated sterile blood was centrifuged at 700×g for 3 minutes and, and the supernatant was removed for 100% of red blood cells. After the cleaning with physiological saline, the washed blood cells was suspended in the medium (Earle's balanced salt sodium, bicarbonate, 0.1 g/L L-glutamine without phenol red), and was diluted by 5% (5% RBC suspension).
The washed blood was diluted by 5% in water for injection (solution of complete hemolysis), and was used as the indication of optical density for complete hemolysis.
The compounds of the present invention solution in DMSO (several and doubling dilutions starting from 10 mmol/L), DMSO as the negative control, and Amphotericin B as the positive control were used, and each 5 μL of these was added in to a well of V-form 96 well type microplate. Finally, the maximum concentration of the compounds of the present invention solution in DMSO was 200 μmol/L by adding 245 μL of the medium or 5% RBC suspension into the well.
Two hundred fifty μL of the solution of complete hemolysis was added into another well and the microplate was incubated at 37° C. in 5% of CO2 concentration for an hour.
After the incubation, each 100 μL of supernatants in wells was collected by centrifugation of the microplate at 300×g for 5 minutes and was located on a well of flat-form 96 well type microplate. An absorbance of each supernatant was measured at wavelength of 540 nm.
Percent hemolysis was calculated by using the followed equation. The required concentration to 50% of hemolysis (IC50) was calculated based on the percent hemolysis. […] Hemolysis (%)=(CR−VM)×100÷(VL−VR) Where:
CR: Absorbance of 5% RBC suspension incubated with the compounds of the present invention solution in DMSO
VM: Absorbance of medium incubated with the compounds of the present invention solution in DMSO
VL: Absorbance of solution of complete hemolysis
VR: Absorbance of 5% RBC suspension incubated with DMSO
The “>200” in the table means above IC50 value exceeded the upper concentration 200 μmol/L.

[1] = Test Example 2-2, hemolysis method 200 (upper concentration 200 μmol/L), 5% RBC suspension, 37° C., one hour

| SMILES | pIC50 [1] | further results |
| --- | --- | --- |
| C[C@@H]1[C@H](O)[C@@H](C)/C=C/C=C/C=C/C=C/C=C/C=C/C=C/[C@H](O[C@@H]2O[C@H](C)[C@@H](O)[C@H](N)[C@@H]2O)C[C@@H]2O[C@](O)(C[C@@H](O)C[C@@H](O)[C@H](O)CC[C@@H](O)C[C@@H](O)CC(=O)O[C@H]1C)C[C@H](O)[C@H]2NC(=O)NNS(=O)(=O)c1c[nH]cn1 [I-214] | < 3.70 | – |
| CNC(=S)NNC(=O)N[C@H]1[C@@H]2C[C@@H](O[C@@H]3O[C@H](C)[C@@H](O)[C@H](N)[C@@H]3O)/C=C/C=C/C=C/C=C/C=C/C=C/C=C/[C@H](C)[C@@H](O)[C@@H](C)[C@H](C)OC(=O)C[C@H](O)C[C@H](O)CC[C@@H](O)[C@H](O)C[C@H](O)C[C@](O)(C[C@@H]1O)O2 [I-215] | < 3.70 | – |
| C[C@@H]1[C@H](O)[C@@H](C)/C=C/C=C/C=C/C=C/C=C/C=C/C=C/[C@H](O[C@@H]2O[C@H](C)[C@@H](O)[C@H](N)[C@@H]2O)C[C@@H]2O[C@](O)(C[C@@H](O)C[C@@H](O)[C@H](O)CC[C@@H](O)C[C@@H](O)CC(=O)O[C@H]1C)C[C@H](O)[C@H]2NC(=O)NNC(=S)Nc1ccccc1 [I-216] | < 3.70 | – |
| C[C@@H]1[C@H](O)[C@@H](C)/C=C/C=C/C=C/C=C/C=C/C=C/C=C/[C@H](O[C@@H]2O[C@H](C)[C@@H](O)[C@H](N)[C@@H]2O)C[C@@H]2O[C@](O)(C[C@@H](O)C[C@@H](O)[C@H](O)CC[C@@H](O)C[C@@H](O)CC(=O)O[C@H]1C)C[C@H](O)[C@H]2NC(=O)NNC(=S)NCCCN1CCOCC1 [I-217] | < 3.70 | – |
| C[C@@H]1[C@H](O)[C@@H](C)/C=C/C=C/C=C/C=C/C=C/C=C/C=C/[C@H](O[C@@H]2O[C@H](C)[C@@H](O)[C@H](N)[C@@H]2O)C[C@@H]2O[C@](O)(C[C@@H](O)C[C@@H](O)[C@H](O)CC[C@@H](O)C[C@@H](O)CC(=O)O[C@H]1C)C[C@H](O)[C@H]2NC(=O)NNC(=O)NCC(N)=O [I-220] | < 3.70 | – |
| C[C@@H]1[C@H](O)[C@@H](C)/C=C/C=C/C=C/C=C/C=C/C=C/C=C/[C@H](O[C@@H]2O[C@H](C)[C@@H](O)[C@H](N)[C@@H]2O)C[C@@H]2O[C@](O)(C[C@@H](O)C[C@@H](O)[C@H](O)CC[C@@H](O)C[C@@H](O)CC(=O)O[C@H]1C)C[C@H](O)[C@H]2NC(=O)NNC(=O)Nc1ccccn1 [I-221] | < 3.70 | – |
| C[C@@H]1[C@H](O)[C@@H](C)/C=C/C=C/C=C/C=C/C=C/C=C/C=C/[C@H](O[C@@H]2O[C@H](C)[C@@H](O)[C@H](N)[C@@H]2O)C[C@@H]2O[C@](O)(C[C@@H](O)C[C@@H](O)[C@H](O)CC[C@@H](O)C[C@@H](O)CC(=O)O[C@H]1C)C[C@H](O)[C@H]2NC(=O)NNC(=O)[C@H](O)CO [I-223] | – | pIC50 (Erythrocyte, 1 h, Test Example 2-2, hemolysis method 200 (upper concentration 200 μmol/L), 5% RBC suspension, 37° C., one hour): < 3.70 |
| C[C@@H]1[C@H](O)[C@@H](C)/C=C/C=C/C=C/C=C/C=C/C=C/C=C/[C@H](O[C@@H]2O[C@H](C)[C@@H](O)[C@H](N)[C@@H]2O)C[C@@H]2O[C@](O)(C[C@@H](O)C[C@@H](O)[C@H](O)CC[C@@H](O)C[C@@H](O)CC(=O)O[C@H]1C)C[C@H](O)[C@H]2NC(=O)NNC(=O)Nc1cccnn1 [I-224] | < 3.70 | – |
| C[C@@H]1[C@H](O)[C@@H](C)/C=C/C=C/C=C/C=C/C=C/C=C/C=C/[C@H](O[C@@H]2O[C@H](C)[C@@H](O)[C@H](N)[C@@H]2O)C[C@@H]2O[C@](O)(C[C@@H](O)C[C@@H](O)[C@H](O)CC[C@@H](O)C[C@@H](O)CC(=O)O[C@H]1C)C[C@H](O)[C@H]2NC(=O)NNC(=O)NC[C@H](O)CO [I-225] | < 3.70 | – |
| CNC(=O)NNC(=O)N[C@H]1[C@@H]2C[C@@H](O[C@@H]3O[C@H](C)[C@@H](O)[C@H](N)[C@@H]3O)/C=C/C=C/C=C/C=C/C=C/C=C/C=C/[C@H](C)[C@@H](O)[C@@H](C)[C@H](C)OC(=O)C[C@H](O)C[C@H](O)CC[C@@H](O)[C@H](O)C[C@H](O)C[C@](O)(C[C@@H]1O)O2 [I-228] | < 3.70 | – |
| C[C@@H]1[C@H](O)[C@@H](C)/C=C/C=C/C=C/C=C/C=C/C=C/C=C/[C@H](O[C@@H]2O[C@H](C)[C@@H](O)[C@H](N)[C@@H]2O)C[C@@H]2O[C@](O)(C[C@@H](O)C[C@@H](O)[C@H](O)CC[C@@H](O)C[C@@H](O)CC(=O)O[C@H]1C)C[C@H](O)[C@H]2NC(=O)NNC(=O)NCC(O)CCl (stereo partly shown) [I-229] | < 3.70 | – |
| C[C@@H]1[C@H](O)[C@@H](C)/C=C/C=C/C=C/C=C/C=C/C=C/C=C/[C@H](O[C@@H]2O[C@H](C)[C@@H](O)[C@H](N)[C@@H]2O)C[C@@H]2O[C@](O)(C[C@@H](O)C[C@@H](O)[C@H](O)CC[C@@H](O)C[C@@H](O)CC(=O)O[C@H]1C)C[C@H](O)[C@H]2NC(=O)NNC(=O)C(C)(C)CO [I-232] | < 3.70 | – |
| C[C@@H]1[C@H](O)[C@@H](C)/C=C/C=C/C=C/C=C/C=C/C=C/C=C/[C@H](O[C@@H]2O[C@H](C)[C@@H](O)[C@H](N)[C@@H]2O)C[C@@H]2O[C@](O)(C[C@@H](O)C[C@@H](O)[C@H](O)CC[C@@H](O)C[C@@H](O)CC(=O)O[C@H]1C)C[C@H](O)[C@H]2NC(=O)NNC(=O)C1CCC(O)CC1 (stereo partly shown) [I-239] | < 3.70 | – |
| C[C@@H]1[C@H](O)[C@@H](C)/C=C/C=C/C=C/C=C/C=C/C=C/C=C/[C@H](O[C@@H]2O[C@H](C)[C@@H](O)[C@H](N)[C@@H]2O)C[C@@H]2O[C@](O)(C[C@@H](O)C[C@@H](O)[C@H](O)CC[C@@H](O)C[C@@H](O)CC(=O)O[C@H]1C)C[C@H](O)[C@H]2NC(=O)NNC(=O)[C@H](O)[C@@H](O)[C@H](O)[C@H](O)CO [I-242] | < 3.70 | – |
| C[C@@H]1[C@H](O)[C@@H](C)/C=C/C=C/C=C/C=C/C=C/C=C/C=C/[C@H](O[C@@H]2O[C@H](C)[C@@H](O)[C@H](N)[C@@H]2O)C[C@@H]2O[C@](O)(C[C@@H](O)C[C@@H](O)[C@H](O)CC[C@@H](O)C[C@@H](O)CC(=O)O[C@H]1C)C[C@H](O)[C@H]2NC(=O)NNC(=O)CO [I-243] | < 3.70 | – |
| C[C@@H]1[C@H](O)[C@@H](C)/C=C/C=C/C=C/C=C/C=C/C=C/C=C/[C@H](O[C@@H]2O[C@H](C)[C@@H](O)[C@H](N)[C@@H]2O)C[C@@H]2O[C@](O)(C[C@@H](O)C[C@@H](O)[C@H](O)CC[C@@H](O)C[C@@H](O)CC(=O)O[C@H]1C)C[C@H](O)[C@H]2NC(=O)NNC(=O)[C@H](O)C(C)(C)CO [I-245] | < 3.70 | – |
| C[C@@H]1[C@H](O)[C@@H](C)/C=C/C=C/C=C/C=C/C=C/C=C/C=C/[C@H](O[C@@H]2O[C@H](C)[C@@H](O)[C@H](N)[C@@H]2O)C[C@@H]2O[C@](O)(C[C@@H](O)C[C@@H](O)[C@H](O)CC[C@@H](O)C[C@@H](O)CC(=O)O[C@H]1C)C[C@H](O)[C@H]2NC(=O)NNS(=O)(=O)c1nnc[nH]1 [I-246] | – | pIC50 (Erythrocyte, 1 h): < 3.70 |
| C[C@@H]1[C@H](O)[C@@H](C)/C=C/C=C/C=C/C=C/C=C/C=C/C=C/[C@H](O[C@@H]2O[C@H](C)[C@@H](O)[C@H](N)[C@@H]2O)C[C@@H]2O[C@](O)(C[C@@H](O)C[C@@H](O)[C@H](O)CC[C@@H](O)C[C@@H](O)CC(=O)O[C@H]1C)C[C@H](O)[C@H]2NC(=O)NNC(=O)C1(CO)CC1 [I-247] | < 3.70 | – |
| C[C@@H]1[C@H](O)[C@@H](C)/C=C/C=C/C=C/C=C/C=C/C=C/C=C/[C@H](O[C@@H]2O[C@H](C)[C@@H](O)[C@H](N)[C@@H]2O)C[C@@H]2O[C@](O)(C[C@@H](O)C[C@@H](O)[C@H](O)CC[C@@H](O)C[C@@H](O)CC(=O)O[C@H]1C)C[C@H](O)[C@H]2NC(=O)NNC(=O)C[C@@H](O)C(=O)O [I-253] | < 3.70 | – |
| C[C@@H]1[C@H](O)[C@@H](C)/C=C/C=C/C=C/C=C/C=C/C=C/C=C/[C@H](O[C@@H]2O[C@H](C)[C@@H](O)[C@H](N)[C@@H]2O)C[C@@H]2O[C@](O)(C[C@@H](O)C[C@@H](O)[C@H](O)CC[C@@H](O)C[C@@H](O)CC(=O)O[C@H]1C)C[C@H](O)[C@H]2NC(=O)NNC(=O)C1(C(N)=O)CC1 [I-256] | < 3.70 | – |
| C[C@@H]1[C@H](O)[C@@H](C)/C=C/C=C/C=C/C=C/C=C/C=C/C=C/[C@H](O[C@@H]2O[C@H](C)[C@@H](O)[C@H](N)[C@@H]2O)C[C@@H]2O[C@](O)(C[C@@H](O)C[C@@H](O)[C@H](O)CC[C@@H](O)C[C@@H](O)CC(=O)O[C@H]1C)C[C@H](O)[C@H]2NC(=O)NNC(=O)C1(O)CC1 [I-257] | < 3.70 | – |
| C[C@@H]1[C@H](O)[C@@H](C)/C=C/C=C/C=C/C=C/C=C/C=C/C=C/[C@H](O[C@@H]2O[C@H](C)[C@@H](O)[C@H](N)[C@@H]2O)C[C@@H]2O[C@](O)(C[C@@H](O)C[C@@H](O)[C@H](O)CC[C@@H](O)C[C@@H](O)CC(=O)O[C@H]1C)C[C@H](O)[C@H]2NC(=O)NNC(=O)C1(S(C)(=O)=O)CC1 [I-263] | – | pIC50 (Erythrocyte, 1 h): < 3.70 |
